Assay results from patent US9603364B2 (Dow AgroSciences LLC, priority 2013, dated 2017).

Key:
Experiment in all cases: General post-emergent herbicidal activity, foliar application
Assay type in all cases: in vivo
[1] = tested on: Amaranthus retroflexus L. (pigweed, redroot); settings: for pest or weed control at 35 g/ha / pest or weed control at 70 g/ha / pest or weed control at 140 g/ha / pest or weed control at 280 g/ha: Amaranthus retroflexus, 336 h, foliar post-emergent, scored after 14 days, read-out: % Visual Growth Reduction AMARE; for pest or weed control at 35 g/ha: 35 g ai/ha; for pest or weed control at 70 g/ha: 70 g ai/ha; for pest or weed control at 140 g/ha: 140 g ai/ha; for pest or weed control at 280 g/ha: 280 g ai/ha; for GR80 Value AMARE: calculated by probit analysis, dose for 80% visual injury, may be extrapolated
How it was run: (§1)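 Visual injury ratings on a scale of 0 (none) to 100% (complete kill), taken 14 days after foliar post-emergence treatment of greenhouse plants and compared with untreated plants, were fitted by probit analysis to give GR20, GR50 and GR80 doses; some GR80 values are extrapolated from the slope. Sprays contained crop oil concentrate and surfactant, with rates from the highest down to 1/16×.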

[2] = tested on: Chenopodium album L. (lambsquarters, common); settings: for pest or weed control at 35 g/ha / pest or weed control at 70 g/ha / pest or weed control at 140 g/ha / pest or weed control at 280 g/ha: Chenopodium album, 336 h, foliar post-emergent, scored after 14 days, read-out: % Visual Growth Reduction CHEAL; for pest or weed control at 35 g/ha: 35 g ai/ha; for pest or weed control at 70 g/ha: 70 g ai/ha; for pest or weed control at 140 g/ha: 140 g ai/ha; for pest or weed control at 280 g/ha: 280 g ai/ha; for GR80 Value CHEAL: calculated by probit analysis, dose for 80% visual injury, may be extrapolated
How it was run: as §1

[3] = tested on: Echinochloa crus-galli (L.) Beauv. (barnyardgrass); settings: for pest or weed control at 35 g/ha / pest or weed control at 70 g/ha / pest or weed control at 140 g/ha / pest or weed control at 280 g/ha: Echinochloa crus-galli, 336 h, foliar post-emergent, scored after 14 days, read-out: % Visual Growth Reduction ECHCG; for pest or weed control at 35 g/ha: 35 g ai/ha; for pest or weed control at 70 g/ha: 70 g ai/ha; for pest or weed control at 140 g/ha: 140 g ai/ha; for pest or weed control at 280 g/ha: 280 g ai/ha; for GR80 Value ECHCG: calculated by probit analysis, dose for 80% visual injury, may be extrapolated
How it was run: as §1

[4] = tested on: Euphorbia heterophylla L. (poinsettia, wild); settings: for pest or weed control at 35 g/ha / pest or weed control at 70 g/ha / pest or weed control at 140 g/ha / pest or weed control at 280 g/ha: Euphorbia heterophylla, 336 h, foliar post-emergent, scored after 14 days, read-out: % Visual Growth Reduction EPHHL; for pest or weed control at 35 g/ha: 35 g ai/ha; for pest or weed control at 70 g/ha: 70 g ai/ha; for pest or weed control at 140 g/ha: 140 g ai/ha; for pest or weed control at 280 g/ha: 280 g ai/ha; for GR80 Value EPHHL: calculated by probit analysis, dose for 80% visual injury, may be extrapolated
How it was run: as §1

[5] = tested on: Helianthus annuus L. (sunflower, common); settings: for pest or weed control at 35 g/ha / pest or weed control at 70 g/ha / pest or weed control at 140 g/ha / pest or weed control at 280 g/ha: Helianthus annuus, 336 h, foliar post-emergent, scored after 14 days, read-out: % Visual Growth Reduction HELAN; for pest or weed control at 35 g/ha: 35 g ai/ha; for pest or weed control at 70 g/ha: 70 g ai/ha; for pest or weed control at 140 g/ha: 140 g ai/ha; for pest or weed control at 280 g/ha: 280 g ai/ha; for GR80 Value HELAN: calculated by probit analysis, dose for 80% visual injury, may be extrapolated
How it was run: as §1

[6] = tested on: Viola tricolor L. (pansy); settings: for pest or weed control at 35 g/ha / pest or weed control at 70 g/ha / pest or weed control at 140 g/ha / pest or weed control at 280 g/ha: Viola tricolor, 336 h, foliar post-emergent, scored after 14 days, read-out: % Visual Growth Reduction VIOTR; for pest or weed control at 35 g/ha: 35 g ai/ha; for pest or weed control at 70 g/ha: 70 g ai/ha; for pest or weed control at 140 g/ha: 140 g ai/ha; for pest or weed control at 280 g/ha: 280 g ai/ha; for GR80 Value VIOTR: calculated by probit analysis, dose for 80% visual injury, may be extrapolated
How it was run: as §1

Oryza sativa L. (rice) = settings: Oryza sativa, 336 h, scored after 14 days, read-out: % Visual Growth Reduction ORYSA; for plant injury at 35 g/ha: 35 g ai/ha; for plant injury at 70 g/ha: 70 g ai/ha; for plant injury at 140 g/ha: 140 g ai/ha; for plant injury at 280 g/ha: 280 g ai/ha
How it was run: (§2)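 Injury rated visually 14 days after treatment on a 0 (none) to 100% (complete kill) scale against untreated plants; greenhouse-grown, sub-irrigated to avoid wash-off. Foliar spray in aqueous acetone/DMSO with isopropanol, crop oil concentrate and Triton X-155, at a highest rate and 2-fold serial dilutions down to 1/16×.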

Zea mays L. (corn) = settings: 336 h, scored after 14 days, read-out: % Visual Growth Reduction ZEAMX; for plant injury at 35 g/ha: 35 g ai/ha; for plant injury at 70 g/ha: 70 g ai/ha; for plant injury at 140 g/ha: 140 g ai/ha; for plant injury at 280 g/ha: 280 g ai/ha
How it was run: as §2

Structure (SMILES) | pest or weed control at 70 g/ha [1] [%] | pest or weed control at 140 g/ha [1] [%] | GR80 Value AMARE [1] [g ai/ha] | pest or weed control at 70 g/ha [2] [%] | pest or weed control at 140 g/ha [2] [%] | GR80 Value CHEAL [2] [g ai/ha] | pest or weed control at 70 g/ha [3] [%] | pest or weed control at 140 g/ha [3] [%] | GR80 Value ECHCG [3] [g ai/ha] | pest or weed control at 70 g/ha [4] [%] | pest or weed control at 140 g/ha [4] [%] | GR80 Value EPHHL [4] [g ai/ha] | pest or weed control at 70 g/ha [5] [%] | pest or weed control at 140 g/ha [5] [%] | GR80 Value HELAN [5] [g ai/ha] | pest or weed control at 70 g/ha [6] [%] | pest or weed control at 140 g/ha [6] [%] | GR80 Value VIOTR [6] [g ai/ha] | plant injury at 140 g/ha (Oryza sativa L. (rice)) [%] | plant injury at 140 g/ha (Zea mays L. (corn)) [%] | other results
COC(=O)c1nc(CF)c(F)c(N)c1Cl [Compound F14, Methyl 4-amino-3-chloro-5-fluoro-6-(fluoromethyl)picolinate] | 80 | 90 | 89.2 | 90 | 100 | 16.8 | 0 | 15 | 411 | 100 | 100 | 53.9 | 90 | 95 | 18 | 0 | 50 | 334 | 0 | 20 | pest or weed control at 35 g/ha [1]: 70%; pest or weed control at 280 g/ha [1]: 100%; pest or weed control at 35 g/ha [2]: 85%; pest or weed control at 280 g/ha [2]: 100%; pest or weed control at 35 g/ha [3]: 0%; pest or weed control at 280 g/ha [3]: 60%; pest or weed control at 35 g/ha [4]: 10%; pest or weed control at 280 g/ha [4]: 100%; pest or weed control at 35 g/ha [5]: 85%; pest or weed control at 280 g/ha [5]: 95%; pest or weed control at 35 g/ha [6]: 0%; pest or weed control at 280 g/ha [6]: 60%; plant injury at 35 g/ha (Oryza sativa L. (rice)): 0%; plant injury at 70 g/ha (Oryza sativa L. (rice)): 0%; plant injury at 280 g/ha (Oryza sativa L. (rice)): 0%; plant injury at 35 g/ha (Zea mays L. (corn)): 0%; plant injury at 70 g/ha (Zea mays L. (corn)): 0%; plant injury at 280 g/ha (Zea mays L. (corn)): 45%
COC(=O)c1nc(C(C)F)c(F)c(N)c1Cl (centres unmarked) [Compound F15, Methyl 4-amino-3-chloro-5-fluoro-6-(1-fluoroethyl)picolinate] | 90 | 95 | 22.3 | 85 | 80 | 48.6 | 20 | 30 | >140 | 85 | 90 | 75.1 | 90 | 100 | 24.4 | 45 | 55 | >140 | 0 | 0 | pest or weed control at 35 g/ha [1]: 90%; pest or weed control at 35 g/ha [2]: 80%; pest or weed control at 35 g/ha [3]: 0%; pest or weed control at 35 g/ha [4]: 55%; pest or weed control at 35 g/ha [5]: 80%; pest or weed control at 35 g/ha [6]: 25%; plant injury at 35 g/ha (Oryza sativa L. (rice)): 0%; plant injury at 70 g/ha (Oryza sativa L. (rice)): 0%; plant injury at 35 g/ha (Zea mays L. (corn)): 0%; plant injury at 70 g/ha (Zea mays L. (corn)): 0%
CC(F)c1nc(C(=O)O)c(Cl)c(N)c1Cl (centres unmarked) [Compound F16, 4-Amino-3,5-dichloro-6-(1-fluoroethyl)picolinic acid] | 90 | 90 | 51.4 | 100 | 100 | <17.5 | 0 | 0 | >280 | 0 | 0 | 373 | 80 | 90 | 31.4 | 0 | 0 | >280 | 0 | 0 | pest or weed control at 280 g/ha [1]: 100%; pest or weed control at 280 g/ha [2]: 100%; pest or weed control at 280 g/ha [3]: 0%; pest or weed control at 280 g/ha [4]: 50%; pest or weed control at 280 g/ha [5]: 100%; pest or weed control at 280 g/ha [6]: 0%; plant injury at 70 g/ha (Oryza sativa L. (rice)): 0%; plant injury at 280 g/ha (Oryza sativa L. (rice)): 0%; plant injury at 70 g/ha (Zea mays L. (corn)): 0%; plant injury at 280 g/ha (Zea mays L. (corn)): 0%
COC(=O)c1nc(C(F)=C(F)F)cc(N)c1Cl [Compound F17] | – | 0 | – | – | 0 | – | – | 0 | – | – | 0 | – | – | 60 | – | – | 0 | – | 0 | 0 | –
COC(=O)c1nc(C(C)F)cc(N)c1Cl (centres unmarked) [Compound F19, Methyl 4-amino-3-chloro-6-(1-fluoroethyl)picolinate] | 100 | 100 | 19.1 | 100 | 100 | <17.5 | 0 | 20 | >280 | 90 | 100 | 72.3 | 20 | 50 | 341 | 100 | 100 | 34.3 | 0 | 90 | pest or weed control at 35 g/ha [1]: 100%; pest or weed control at 280 g/ha [1]: 100%; pest or weed control at 35 g/ha [2]: 100%; pest or weed control at 280 g/ha [2]: 100%; pest or weed control at 35 g/ha [3]: 0%; pest or weed control at 280 g/ha [3]: 25%; pest or weed control at 35 g/ha [4]: 10%; pest or weed control at 280 g/ha [4]: 100%; pest or weed control at 35 g/ha [5]: 10%; pest or weed control at 280 g/ha [5]: 80%; pest or weed control at 35 g/ha [6]: 100%; pest or weed control at 280 g/ha [6]: 100%; plant injury at 35 g/ha (Oryza sativa L. (rice)): 0%; plant injury at 70 g/ha (Oryza sativa L. (rice)): 0%; plant injury at 280 g/ha (Oryza sativa L. (rice)): 0%; plant injury at 35 g/ha (Zea mays L. (corn)): 0%; plant injury at 70 g/ha (Zea mays L. (corn)): 0%; plant injury at 280 g/ha (Zea mays L. (corn)): 100%
COC(=O)c1nc(C(C)CF)cc(N)c1Cl (centres unmarked) [Compound F20, methyl 4-amino-3-chloro-6-(1-fluoropropan-2-yl)picolinate] | – | 95 | – | – | 80 | – | – | 0 | – | – | 95 | – | – | 50 | – | – | 30 | – | 0 | 0 | –
